Tests used:
[1] = target: T1, IRAK4 (Homo sapiens (Human), UniProt Q9NWZ3); assay: Screening the compounds against IRAK4 with ATP (Caliper, FAM-labeled peptide); type: biochemical; settings: for IC50: read-out: IC50 (nM) (10 μM ATP), IRAK4 kinase, 10 μM ATP; for activity, times better than that of the positive control compound CA4948: IRAK4 kinase inhibition relative to CA4948
Method in brief: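 Enzyme preincubated with compound 10 min at room temperature in 50 mM HEPES pH 7.5, 0.0015% Brij-35; reaction started with FAM-labeled peptide and ATP at 28° C, stopped with EDTA.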

[2] = target: T1, IRAK4; assay: Kinase binding ability (KINOMEscan site-directed competition binding assay); settings: for Kd: Kd between IRAK4 and compound
Procedure: The Equilibrium dissociation constant reflected the test compound's kinase binding (Kd). The KINOMEscan, a site-directed competition binding assay, was used to measure interactions between test compounds and specific kinases. The kinase-tagged T7 phage strains were derived from the BL21 strain's E. coli host. T7 phage was used to infect E. coli, which was then incubated until lysis occurred. The remaining kinases were produced in HEK-293 cells and tagged with DNA. To create affinity resins for kinase, streptavidin-coated magnetic beads were treated with biotinylated small molecule ligands. The assay consists of three components: a DNA-tagged kinase, an immobilized ligand, and the test compound. An immobilized ligand could compete with the compound binding the kinase active site. The affinity beads were washed with wash buffer and re-suspended in elution buffer following reactions in a polypropylene 384-well plate. qPCR of the kinase-DNA tag was used to assess the test compound's ability to bind with the selected kinase. The assay was carried out in accordance with the manufacturer's instructions (Eurofins DiscoverX Corporation).
Binding constants (Kd) were calculated with a standard dose-response curve using the Hill equation: […]

[3] = Metabolic stability in human liver microsomes; type: in vitro ADME; settings: for half-life: NADPH, 37° C., read-out: Human microsome (t1/2)
Procedure: (§1) The appropriate concentrations of microsomes working solutions (0.56 mg/mL) were prepared in potassium phosphate buffer. The test compounds were incubated with Human, SD Rat, CD-1 Mouse and Beagle Dog liver microsomes for 10 min at 37° C. with constant shaking. The reaction was initiated by the addition of nicotinamide adenine dinucleotide phosphate (NADPH) cofactor after a 10 min pre-incubation. At 5, 15, 30, 45, and 60 min, the samples were taken and placed into the stop solution (Cold acetonitrile containing 200 ng/mL tolbutamide and 200 ng/mL labetalol as internal standards). All sampling plates were shaken for 10 min, then centrifuged at 4000 rpm for 20 minutes at 4° C. Each supernatant of bioanalysis plate was sealed and shaken for 10 minutes prior to LC-MS analysis.

[4] = Metabolic stability in rat liver microsomes; type: in vitro ADME, SD Rat; settings: for half-life: SD rat liver microsomes, NADPH, 37° C., read-out: Rat microsome (t1/2)
Procedure: as §1

[5] = Metabolic stability in mouse liver microsomes; type: in vitro ADME, CD-1 Mouse; settings: for half-life: CD-1 mouse liver microsomes, NADPH, 37° C., read-out: Mouse microsome (t1/2)
Procedure: as §1

[6] = Metabolic stability in dog liver microsomes; type: in vitro ADME, Beagle Dog; settings: for half-life: Beagle dog liver microsomes, NADPH, 37° C., read-out: Dog microsome (t1/2)
Procedure: as §1

[7] = Pharmacokinetics study in ICR mice; type: in vivo; settings: for clearance rate (in words) / half-life (in words) / oral absorption (in words) / oral exposure and bioavailability (in words): mice; for clearance rate (in words) / half-life (in words): administered intravenously; for oral absorption (in words) / oral exposure and bioavailability (in words): oral administration; for Vd / clearance / half-life / AUC / bioavailability / Cmax / Tmax: mouse, plasma, male ICR mice; for AUC: zero to 24 hours; for bioavailability: oral, p.o.: 10 mg/kg vs i.v.: 2 mg/kg
Procedure: Solution used:10% DMSO+10% Solutol+80% (20% Hp-β-CD)
Single dose pharmacokinetic parameters were determined at Medicilon using male ICR mice (3 […] per group, 2 groups). Groups were dosed i.v. (2 mg/kg) or p.o. (10 mg/kg) and blood samples were taken via submandibular or saphenous vein at the following time points post dosing: 0.083 (i.v. only), 0.25, 0.5, 1, 2, 4, 6 (p.o. only), 8 and 24 h. An aliquot of 50 μL of blood plasma was protein precipitated with 250 μL internal standard solution (200 ng/mL tolbutamide in MeOH), the mixture was vortex-mixed for 1 min and centrifuged at 14,000 rpm for 5 min. The concentration of the test compound in the plasma samples was determined using LC-MS/MS with the peak areas compared to a calibration curve determined using 5-5000 ng/mL test compound in ICR mice plasma. […] Cmax represents peak plasma concentration of the drug; Tmax represents the time to reach Cmax; T1/2 represents elimination half-life or the time taken for Cmax to drop in half; Cl represents clearance; Vd represents apparent volume of distribution; F represents bioavailability; p.o. represents oral administration; and i.v. represents intravenous injection.

T1 sequence (Q9NWZ3 whole entry): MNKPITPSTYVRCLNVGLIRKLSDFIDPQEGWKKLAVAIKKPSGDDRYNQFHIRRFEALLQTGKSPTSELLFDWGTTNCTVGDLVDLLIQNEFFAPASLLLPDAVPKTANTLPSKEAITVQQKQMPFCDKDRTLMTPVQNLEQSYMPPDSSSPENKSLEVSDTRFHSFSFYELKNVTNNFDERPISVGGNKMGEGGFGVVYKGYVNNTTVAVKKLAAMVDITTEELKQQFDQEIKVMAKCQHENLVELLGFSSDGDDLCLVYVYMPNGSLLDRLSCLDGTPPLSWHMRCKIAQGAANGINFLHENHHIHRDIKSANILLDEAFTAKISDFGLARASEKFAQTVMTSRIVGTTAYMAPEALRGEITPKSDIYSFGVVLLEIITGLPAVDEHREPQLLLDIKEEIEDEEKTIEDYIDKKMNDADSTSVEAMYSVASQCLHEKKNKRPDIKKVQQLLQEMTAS

Row | IC50 [1] | binding affinities to IRAK4 (in words) [2] | Kd [2] | metabolic stability in liver microsomes of human (in words) [3] | half-life [3] | half-life [4] | metabolic stability in liver microsomes of rat (in words) [4] | half-life [5] | metabolic stability in liver microsomes of mouse (in words) [5] | half-life [6] | metabolic stability in liver microsomes of dog (in words) [6] | activity, times better than that of the positive control compound CA4948 [1] | clearance rate (in words) [7] | half-life (in words) [7] | oral absorption (in words) [7] | Vd ([7]; iv, i.v.: 2 mg/kg) | clearance ([7]; iv, i.v.: 2 mg/kg) | half-life ([7]; iv, i.v.: 2 mg/kg) | AUC ([7]; iv, i.v.: 2 mg/kg) | SMILES | oral exposure and bioavailability (in words) [7] | also measured
1 | 405 nM | high binding affinities | 29 nM | good metabolic stability | > 2.42 h | > 2.42 h | good metabolic stability | > 2.42 h | good metabolic stability | > 2.42 h | good metabolic stability |  |  |  |  |  |  |  |  | Cn1cc(-c2cccc(NC(=O)c3cc4oc(N5CCOCC5)nc4nc3N3CC[C@@H](O)C3)n2)cn1 [Compound A1, (R)-5-(3-hydroxypyrrolidin-1-yl)-N-(6-(1-methyl-1H-pyrazol-4-yl)pyridin-2-yl)-2-morpholinooxazolo[4,5-b]pyridine-6-carboxamide] |  | 
2 | 11 nM | high binding affinities | 0.59 nM | good metabolic stability | > 2.42 h | 1.53 h | good metabolic stability | > 2.42 h | good metabolic stability | 1.7 h | good metabolic stability | more than 10 times | low clearance rate | good half-life | well absorbed orally | 0.98 L/kg | 0.486 L/h/kg | 1.4 h | 4.05 µg·h/mL | Cn1cc(-c2cccc(NC(=O)c3cc4oc(N5CCOCC5)nc4nc3N3CCC(O)CC3)n2)cn1 [Compound A4, 5-(4-hydroxypiperidin-1-yl)-N-(6-(1-methyl-1H-pyrazol-4-yl)pyridin-2-yl)-2-morpholinooxazolo[4,5-b]pyridine-6-carboxamide] | extremely high oral exposure and bioavailability | bioavailability [7]: 130%; Cmax ([7]; po, p.o.: 10 mg/kg): 8.58 µg/mL; Tmax ([7]; po, p.o.: 10 mg/kg): 1.17 h; AUC ([7]; po, p.o.: 10 mg/kg): 26.4 µg·h/mL
3 | 4.1 nM |  |  | good metabolism | 1.95 h | 1.27 h | moderate metabolic stability | 1.48 h | good metabolism | 1.13 h | moderate metabolic stability | more than 25 times |  |  |  |  |  |  |  | COC1CCN(c2nc3nc(N4CCOCC4)oc3cc2C(=O)Nc2cccc(-c3cnn(C)c3)n2)CC1 [Compound A24, 5-(4-Methoxypiperidin-1-yl)-N-(6-(1-methyl-1H-pyrazol-4-yl)pyridin-2-yl)-2-morpholinooxazolo[4,5-b]pyridine-6-carboxamide] |  | 
4 | 7.6 nM | high binding affinities | 0.69 nM | good metabolic stability | > 2.42 h | > 2.42 h | good metabolic stability | 1.18 h | moderate metabolic stability | > 2.42 h | good metabolic stability |  | low clearance rate | good half-life | well absorbed orally | 3.6 L/kg | 0.816 L/h/kg | 3.1 h | 2.45 µg·h/mL | Cn1cc(-c2cccc(NC(=O)c3cc4c(nc3N3CCC(O)CC3)OC(C)(C)C4)n2)cn1 [Compound B5, 6-(4-Hydroxypiperidin-1-yl)-2,2-dimethyl-N-(6-(1-methyl-1H-pyrazol-4-yl)pyridin-2-yl)-2,3-dihydrofuro[2,3-b]pyridine-5-carboxamide] | extremely high oral exposure and bioavailability | bioavailability [7]: 91%; Cmax ([7]; po, p.o.: 10 mg/kg): 1.46 µg/mL; Tmax ([7]; po, p.o.: 10 mg/kg): 2 h; AUC ([7]; po, p.o.: 10 mg/kg): 9.99 µg·h/mL
